Changes are numbered by the printed parent chain. Where two headings read alike, the source gives them in different places.
Legend:
[1] = molecular target: T1, androgen receptor in MDA-MB453-MMTV clone 54-19 cells (Homo sapiens, UniProt P10275); test: AR Antagonist Cell Assay (MMTV-luciferase reporter, DHT-induced); format: cell-based; settings: MDA-MB453-MMTV clone 54-19, 100 pM DHT, 17 hr; mean of multiple tests
T1 sequence (P10275 1-920 Q868H): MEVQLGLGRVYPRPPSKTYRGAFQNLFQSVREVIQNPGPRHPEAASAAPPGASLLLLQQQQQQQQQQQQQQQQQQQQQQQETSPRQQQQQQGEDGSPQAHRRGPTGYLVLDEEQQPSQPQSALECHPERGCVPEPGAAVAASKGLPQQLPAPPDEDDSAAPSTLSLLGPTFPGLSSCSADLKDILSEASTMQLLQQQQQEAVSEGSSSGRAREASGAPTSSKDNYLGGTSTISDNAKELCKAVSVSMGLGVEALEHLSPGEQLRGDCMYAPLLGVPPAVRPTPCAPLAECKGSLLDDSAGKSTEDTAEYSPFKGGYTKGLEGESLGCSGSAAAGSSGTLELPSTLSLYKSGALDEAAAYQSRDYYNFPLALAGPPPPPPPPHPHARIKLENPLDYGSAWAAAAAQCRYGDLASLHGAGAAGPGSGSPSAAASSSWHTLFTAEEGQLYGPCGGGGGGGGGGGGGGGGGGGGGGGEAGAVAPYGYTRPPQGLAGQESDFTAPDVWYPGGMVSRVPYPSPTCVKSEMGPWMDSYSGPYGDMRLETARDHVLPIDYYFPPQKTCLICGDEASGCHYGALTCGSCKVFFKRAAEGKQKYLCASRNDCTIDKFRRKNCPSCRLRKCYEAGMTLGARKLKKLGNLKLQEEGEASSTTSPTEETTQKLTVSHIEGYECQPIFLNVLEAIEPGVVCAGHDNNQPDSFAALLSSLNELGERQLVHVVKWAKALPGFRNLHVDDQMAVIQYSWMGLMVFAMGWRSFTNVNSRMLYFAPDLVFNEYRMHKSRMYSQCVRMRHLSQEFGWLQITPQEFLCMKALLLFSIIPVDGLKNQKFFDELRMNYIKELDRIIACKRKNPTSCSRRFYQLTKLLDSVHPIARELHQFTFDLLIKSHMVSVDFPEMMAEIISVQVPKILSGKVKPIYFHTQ
Description: The compounds ability to antagonize the effects of androgen on the androgen receptor were determined in a whole cell assay as described immediately below.
Cell line: MDA-MB453-MMTV clone 54-19. This cell line is a stable transfected cell line with MDA-MB453 cell background (a human breast tumor cell line expressing androgen receptor). A MMTV minimal promoter containing ARE was first cloned in front of a firefly luciferase reporter gene. Then the cascade was cloned into transfection vector pUV120puro. Electroporation method was used for transfecting MDA-MB-453 cell. Puromycin resistant stable cell line was selected.
Culture medium: DMEM (high glucose, Gibco cat #: 11960-044), 10% FBS, and 1% L-glutamine
Plating medium: DMEM (phenol red free), 10% charcoal treated HyClone serum, 1% L-glutamine
Assay medium: DMEM (phenol red free), 1% charcoal treated HyClone serum, 1% L-glutamine, and 1% penicillin/streptomycin
3× luciferase buffer: 2% beta-mercaptoethanol, 0.6% ATP, 0.0135% luciferine in cell lysis buffer
Cells are maintained in culture medium, splitting cells when they reach 80-90% confluence. To test compounds, 10,000 cells/well are plated to opaque 96 cell culture plate in 100 ul/well plating medium, culture for overnight at 37° C. in cell culture incubator. Carefully remove plating medium, then add 80 ul/well of pre-warmed assay medium, add 10 ul/well testing compound (final concentration at) 1000 nM, 200 nM, 40 nM, 8 nM, 1.6 nM, and 0.32 nM), incubate at 37° C. for 30 minutes. Add 10 ul/well freshly prepared DHT (final concentration at 100 pM) to each well, incubate at 37° C. for 17 hr (overnight). Add 50 ul/well 3× luciferase buffer, incubate at room temperature for 5 minutes, then count on Luminometer. The fold induction over background by 100 pM DHT in the absence of testing compounds is standardized as 100% and experimental result is expressed as percentage of inhibition by testing compounds.
The results are reported as the mean of multiple tests as described below (the numbers of tests are indicated in the footnote). ND denotes that the compound was not tested.

[2] = molecular target: T2, hAR (human androgen receptor, baculovirus/Sf9 generated extracts) (Homo sapiens, UniProt P10275); test: AR Binding Assay (competitive binding with 3H-DHT tracer); settings: 1 nM 3H-DHT, one hour at 4° C., mean of multiple tests
T2 construct: made in house; host or cells: baculovirus/Sf9 insect cells (crude extract)
T2 sequence (P10275 1-920): T1 sequence (P10275 1-920 Q868H) with H868Q
Description: The compounds of Formula I have affinity for the androgen receptor. […] The description below describes how the assay was carried out.
Competitive binding analysis was performed on baculovirus/Sf9 generated hAR extracts in the presence or absence of different concentrations of test agent and a fixed concentration of ^3H-dihydrotestosterone (^3H-DHT) as tracer. This binding assay method is a modification of a protocol previously described (Liao S., et. al., J. Steroid Biochem., 20:11-17, 1984). Briefly, progressively decreasing concentrations of compounds are incubated in the presence of hAR extract (Chang et al., P.N.A.S., Vol. 89, pp. 5546-5950, 1992), hydroxylapatite, and 1 nM ^3H-DHT for one hour at 4° C. Subsequently, the binding reactions are washed three times to completely remove excess unbound ^3H-DHT. hAR bound ^3H-DHT levels are determined in the presence of compounds (i.e. competitive binding) and compared to levels bound when no competitor is present (i.e. maximum binding). Compound binding affinity to the hAR is expressed as the concentration of compound at which one half of the maximum binding is inhibited. Table II below provides the results that were obtained for selected compounds (reported data is the mean of multiple tests as shown below).

[3] = hAR extract, read-out: AR Binding IC50

## CC(Oc1ccc(C#N)c(C(F)(F)F)c1)c1cccnc1 (racemic) [Example 33, 4-(1-Pyridin-3-yl-ethoxy)-2-trifluoromethyl-benzonitrile]
[1]
  IC50: 0.063 µM
[2]; AR Binding IC50, hAR extract
  IC50: 0.192 µM

## C=CCC(Oc1ccc(C#N)c(C(F)(F)F)c1)c1cccc(O)c1 (single isomer, unassigned; (+)) [Example 18, (+)4-{[1-(3-Hydroxyphenyl)but-3-enyl]oxy}-2-(trifluoromethyl)benzonitrile]
[1]
  IC50: 0.086 µM
[2]; AR Binding IC50, hAR extract
  IC50: 0.017 µM

## C=CCC(Oc1ccc(C#N)c(C(F)(F)F)c1)c1cccc(O)c1 (racemic) [Example 17, 4-{[1-(3-Hydroxyphenyl)but-3-enyl]oxy}-2-(trifluoromethyl)benzonitrile]
[1]
  IC50: 0.105 µM
[2]; AR Binding IC50, hAR extract
  IC50: 0.014 µM

## CCC(Oc1ccc(C#N)c(C(F)(F)F)c1)c1cccnc1 (centres unmarked) [Example 90, 4-(1-Pyridin-3-yl-propoxy)-2-trifluoromethyl-benzonitrile]
[1]
  IC50: 0.142 µM
[2]; [3]
  IC50: 0.167 µM

## Cc1ccccc1C(C)Oc1ccc(C#N)c(Cl)c1 (centres unmarked) [Example 62]
[1]
  IC50: 0.464 µM
[2]; [3]
  IC50: 0.052 µM

## Cc1cccc(C(C)Oc2ccc(C#N)c(Cl)c2)c1 (centres unmarked) [Example 60, 2-Chloro-4-(1-m-tolyl-ethoxy)-benzonitrile]
[1]
  IC50: > 1 µM
[2]; AR Binding IC50, hAR extract
  IC50: 0.074 µM

## CC(Oc1ccc(C#N)c(C(F)(F)F)c1)c1ccc(F)cc1 (centres unmarked) [Example 25, 4-[1-(4-Fluoro-phenyl)-ethoxy]-2-trifluoromethyl-benzonitrile]
[1]
  IC50: 0.092 µM
[2]; AR Binding IC50, hAR extract
  IC50: 0.137 µM

## Cc1ccc(C)c(C(C)Oc2ccc(C#N)c(Cl)c2)c1 (centres unmarked) [Example 61, 2-Chloro-4-[1-(2,5-dimethyl-phenyl)-ethoxy]-benzonitrile]
[1]
  IC50: > 1 µM
[2]; AR Binding IC50, hAR extract
  IC50: 0.061 µM

## CCCC(Oc1ccc(C#N)c(C(F)(F)F)c1)c1ccccn1 (centres unmarked) [Example 81, 4-(1-Pyridin-2-yl-butoxy)-2-trifluoromethyl-benzonitrile]
[1]
  IC50: 0.28 µM
[2]; AR Binding IC50, hAR extract
  IC50: 0.0543 µM

## COC(=O)c1ccc(C(C)Oc2ccc(C#N)c(C(F)(F)F)c2)cc1 (racemic) [Example 29, (±)-4-[1-(4-Cyano-3-trifluoromethyl-phenoxy)-ethyl]-benzoic Acid Methyl Ester]
[1]
  IC50: 0.132 µM
[2]; [3]
  IC50: 0.102 µM

## COc1cccc(C(C)Oc2ccc(C#N)c(C(F)(F)F)c2)c1 (centres unmarked) [Example 4, 4-[1-(3-Methoxy-phenyl)-ethoxy]-2-t-trifluoromethyl-benzonitrile]
[1]
  IC50: > 1 µM
[2]; [3]
  IC50: 0.078 µM

## CCCCCCC(Oc1ccc(C#N)c(C(F)(F)F)c1)c1ccccc1 (centres unmarked) [Example 46, 4-(1-Phenyl-heptyloxy)-2-trifluoromethyl-benzonitrile]
[1]
  IC50: > 1 µM
[2]; [3]
  IC50: 0.204 µM

## CCC(Oc1ccc(C#N)c(C(F)(F)F)c1)c1cccc(O)c1 (single isomer, unassigned; (+)) [Example 12, (+)4-[1-(3-Hydroxyphenyl)propoxy]-2-(trifluoromethyl)benzonitrile]
[1]
  IC50: > 1 µM
[2]; AR Binding IC50, hAR extract
  IC50: 0.019 µM

## CCCCC(Oc1ccc(C#N)c(C(F)(F)F)c1)c1ccccn1 (centres unmarked) [Example 84, 4-(1-Pyridin-2-yl-pentyloxy)-2-trifluoromethyl-benzonitrile]
[1]
  IC50: > 0.667 µM
[2]; [3]
  IC50: 0.161 µM

## C=CC(Oc1ccc(C#N)c(C(F)(F)F)c1)c1cccc(O)c1 (centres unmarked) [Example 16, 4-{[1-(3-Hydroxyphenyl)prop-2-enyl]oxy}-2-(trifluoromethyl)benzonitrile]
[1]
  IC50: 0.416 µM
[2]; AR Binding IC50, hAR extract
  IC50: 0.011 µM

## N#Cc1ccc(OCC2COc3ccccc3O2)cc1Cl (centres unmarked) [Example 69, 2-Chloro-4-(2,3-dihydro-benzo[1,4]dioxin-2-ylmethoxy)-benzonitrile]
[1]
  IC50: > 1 µM
[2]; [3]
  IC50: 0.108 µM

## Cc1cccc(C(C)Oc2ccc(C#N)c(C(F)(F)F)c2)c1 (centres unmarked) [Example 51, 4-(1-m-Tolyl-ethoxy)-2-trifluoromethyl-benzonitrile]
[1]
  IC50: > 1 µM
[2]; AR Binding IC50, hAR extract
  IC50: 0.108 µM

## CCC(Oc1ccc(C#N)c(C(F)(F)F)c1)c1cccc(O)c1 (racemic) [Example 11, 4-[1-(3-Hydroxyphenyl)propoxy]-2-(trifluoromethyl)benzonitrile]
[1]
  IC50: > 1 µM
[2]; AR Binding IC50, hAR extract
  IC50: 0.011 µM

## CC(Oc1ccc(C#N)c(C(F)(F)F)c1)c1ccccn1 (racemic) [Example 35, 4-(1-Pyridin-2-yl-ethoxy)-2-trifluoromethyl-benzonitrile]
[1]
  IC50: 0.254 µM
[2]; AR Binding IC50, hAR extract
  IC50: 0.18 µM

## Cc1cccc(COc2ccc(C#N)c(Cl)c2)c1 [Example 64, 2-Chloro-4-(3-methyl-benzyloxy)-benzonitrile]
[1]
  IC50: > 1 µM
[2]; AR Binding IC50, hAR extract
  IC50: 0.074 µM

## C[C@H](Oc1ccc(C#N)c(C(F)(F)F)c1)c1ccccc1 [Example 2, (S)-4-(1-Phenyl-ethoxy)-2-trifluoromethyl-benzonitrile]
[1]
  IC50: 0.381 µM
[2]; AR Binding IC50, hAR extract
  IC50: 0.013 µM

## CC(C)(Oc1ccc(C#N)cc1Cl)c1ccccc1 [Example 37, 3-Chloro-4-(1-methyl-1-phenyl-ethoxy)-benzonitrile]
[1]
  IC50: > 1 µM
[2]; [3]
  IC50: 0.184 µM

Source: patent publication US20090170886A1 (Pfizer Inc, priority 2005, published 2009)
